Experimental data from PubChem BioAssay (NCI).
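The compound was tested at five concentrations on cells cultured in 96-well plates, with a 48-hour exposure period. The concentration for 50% growth inhibition is given as GI50. TGI denotes the concentration required for complete inhibition of growth.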

Legend:
Experiment in all cases: NCI tumour cell line growth inhibition, 48 h
786-0 renal = test system: 786-0 renal
A498 renal = test system: A498 renal
A549 NSCLC = test system: A549 NSCLC
ACHN renal = test system: ACHN renal
BT-549 breast = test system: BT-549 breast
CAKI-1 renal = test system: CAKI-1 renal
CCRF-CEM leukemia = test system: CCRF-CEM leukemia
COLO 205 colon = test system: COLO 205 colon
DLD-1 colon = test system: DLD-1 colon
DMS 273 small cell lung = test system: DMS 273 small cell lung
DU-145 prostate = test system: DU-145 prostate
EKVX NSCLC = test system: EKVX NSCLC
HCC-2998 colon = test system: HCC-2998 colon
HCT-116 colon = test system: HCT-116 colon
HCT-15 colon = test system: HCT-15 colon
HL-60(TB) leukemia = test system: HL-60(TB) leukemia
HOP-18 NSCLC = test system: HOP-18 NSCLC
HOP-62 NSCLC = test system: HOP-62 NSCLC
HOP-92 NSCLC = test system: HOP-92 NSCLC
HS 578T breast = test system: HS 578T breast
HT29 colon = test system: HT29 colon
IGROV1 ovarian = test system: IGROV1 ovarian
K-562 leukemia = test system: K-562 leukemia
KM12 colon = test system: KM12 colon
KM20L2 colon = test system: KM20L2 colon
LOX IMVI melanoma = test system: LOX IMVI melanoma
M14 melanoma = test system: M14 melanoma
M19-MEL melanoma = test system: M19-MEL melanoma
MALME-3M melanoma = test system: MALME-3M melanoma
MCF7 breast = test system: MCF7 breast
MDA-MB-231 breast = test system: MDA-MB-231 breast
MDA-MB-435 = test system: MDA-MB-435
MDA-N = test system: MDA-N
MOLT-4 leukemia = test system: MOLT-4 leukemia
NCI-H226 lung = test system: NCI-H226 lung
NCI-H23 lung = test system: NCI-H23 lung
NCI-H460 lung = test system: NCI-H460 lung
NCI-H522 lung = test system: NCI-H522 lung
NCI/ADR-RES ovarian = test system: NCI/ADR-RES ovarian
OVCAR-3 ovarian = test system: OVCAR-3 ovarian
OVCAR-4 ovarian = test system: OVCAR-4 ovarian
OVCAR-5 ovarian = test system: OVCAR-5 ovarian
OVCAR-8 ovarian = test system: OVCAR-8 ovarian
P388 leukemia = test system: P388 leukemia
P388/ADR leukemia = test system: P388/ADR leukemia
PC-3 prostate = test system: PC-3 prostate
RPMI-8226 leukemia = test system: RPMI-8226 leukemia
RXF 393 renal = test system: RXF 393 renal
SF-268 CNS = test system: SF-268 CNS
SF-295 CNS = test system: SF-295 CNS
SF-539 CNS = test system: SF-539 CNS
SK-MEL-2 melanoma = test system: SK-MEL-2 melanoma
SK-MEL-28 melanoma = test system: SK-MEL-28 melanoma
SK-MEL-5 melanoma = test system: SK-MEL-5 melanoma
SK-OV-3 ovarian = test system: SK-OV-3 ovarian
SN12C renal = test system: SN12C renal
SN12K1 renal = test system: SN12K1 renal
SNB-19 CNS = test system: SNB-19 CNS
SNB-75 CNS = test system: SNB-75 CNS
SNB-78 CNS = test system: SNB-78 CNS
SR leukemia = test system: SR leukemia
SW-620 colon = test system: SW-620 colon
T-47D breast = test system: T-47D breast
TK-10 renal = test system: TK-10 renal
U251 CNS = test system: U251 CNS
UACC-257 melanoma = test system: UACC-257 melanoma
UACC-62 melanoma = test system: UACC-62 melanoma
UO-31 renal = test system: UO-31 renal
XF 498 CNS = test system: XF 498 CNS

SMILES: COc1cc([C@@H]2c3cc4c(cc3[C@@H](OC3OC5CO[C@@H](c6cccs6)OC5C(O)C3O)[C@H]3COC(=O)[C@H]23)OCO4)cc(OC)c1O (stereo not given in full)
- TGI (786-0 renal): 1.19 µM
- TGI (A498 renal): 3.51 µM
- TGI (A549 NSCLC): 4.17 µM
- TGI (ACHN renal): 2.12 µM
- TGI (BT-549 breast): 2.53 µM
- TGI (CAKI-1 renal): 2 µM
- TGI (CCRF-CEM leukemia): 3.89 µM
- TGI (COLO 205 colon): 5.06 µM
- TGI (DLD-1 colon): 11.3 µM
- TGI (DMS 273 small cell lung): 3.03 µM
- TGI (DU-145 prostate): 2.12 µM
- TGI (EKVX NSCLC): 4.33 µM
- TGI (HCC-2998 colon): 3.47 µM
- TGI (HCT-116 colon): 10.7 µM
- TGI (HCT-15 colon): 11.3 µM
- TGI (HL-60(TB) leukemia): 1.35 µM
- TGI (HOP-18 NSCLC): 14.2 µM
- TGI (HOP-62 NSCLC): 0.866 µM
- TGI (HOP-92 NSCLC): 1.76 µM
- TGI (HS 578T breast): 4.71 µM
- TGI (HT29 colon): 11.7 µM
- TGI (IGROV1 ovarian): 13.3 µM
- TGI (K-562 leukemia): 17.2 µM
- TGI (KM12 colon): 5.06 µM
- TGI (KM20L2 colon): 14.6 µM
- TGI (LOX IMVI melanoma): 4.4 µM
- TGI (M14 melanoma): 3.71 µM
- TGI (M19-MEL melanoma): 12.4 µM
- TGI (MALME-3M melanoma): 4.29 µM
- TGI (MCF7 breast): 15.6 µM
- TGI (MDA-MB-231 breast): 3.81 µM
- TGI (MDA-MB-435): 10.7 µM
- TGI (MDA-N): 10.4 µM
- GI50 (MOLT-4 leukemia): 0.0161 µM
- TGI (MOLT-4 leukemia): 0.473 µM
- TGI (NCI-H226 lung): 3.05 µM
- TGI (NCI-H23 lung): 4.44 µM
- TGI (NCI-H460 lung): 2.59 µM
- TGI (NCI-H522 lung): 4.16 µM
- TGI (NCI/ADR-RES ovarian): 25 µM
- TGI (OVCAR-3 ovarian): 6.89 µM
- TGI (OVCAR-4 ovarian): 16.7 µM
- TGI (OVCAR-5 ovarian): 11.7 µM
- TGI (OVCAR-8 ovarian): 3.5 µM
- TGI (P388 leukemia): 1.93 µM
- TGI (P388/ADR leukemia): 14.3 µM
- TGI (PC-3 prostate): 21.9 µM
- TGI (RPMI-8226 leukemia): 3.35 µM
- TGI (RXF 393 renal): 3.38 µM
- TGI (SF-268 CNS): 7.24 µM
- TGI (SF-295 CNS): 1.2 µM
- TGI (SF-539 CNS): 2.2 µM
- TGI (SK-MEL-2 melanoma): 4.37 µM
- TGI (SK-MEL-28 melanoma): 12.4 µM
- TGI (SK-MEL-5 melanoma): 3.31 µM
- TGI (SK-OV-3 ovarian): 1.93 µM
- TGI (SN12C renal): 2.33 µM
- TGI (SN12K1 renal): 1.84 µM
- TGI (SNB-19 CNS): 9.24 µM
- TGI (SNB-75 CNS): 4 µM
- TGI (SNB-78 CNS): 10.4 µM
- TGI (SR leukemia): 3.28 µM
- TGI (SW-620 colon): 9.5 µM
- TGI (T-47D breast): 4.21 µM
- TGI (TK-10 renal): 6.89 µM
- TGI (U251 CNS): 2.47 µM
- TGI (UACC-257 melanoma): 12.3 µM
- TGI (UACC-62 melanoma): 2.71 µM
- TGI (UO-31 renal): 12.1 µM
- TGI (XF 498 CNS): 3.73 µM
